{"source": "patent US7867522B2", "about": "“Method of wound/burn healing using copper-zinc compositions” (JR Chem, LLC, priority 2006, dated 2011)", "format_in_all_cases": "in vivo, human", "key": {"open soars on their feet": {"system": "open soars on their feet", "test": "topical treatment of open sores on the feet", "conditions": "person, composition applied to the wound twice a day for 10 days", "from_the_text": "A person is suffering from open soars on their feet. A composition containing copper-zinc malonate is applied to the wound twice a day for 10 days. Healing time is reduced."}, "[1]": {"system": "6 inch laceration to their right forearm", "test": "topical treatment of a forearm laceration", "conditions": "person; emulsion composition applied three times a day for 1 week", "from_the_text": "A person is suffering from 6 inch laceration to their right forearm. An emulsion composition suitable for treatment of skin containing an effective amount of copper-zinc malonate active ingredient is applied to their laceration three times a day for 1 week."}, "pressure ulcer": {"system": "pressure ulcer", "test": "topical treatment of pressure ulcers in a diabetic patient", "from_the_text": "A diabetic is suffering from a stage I pressure ulcer characterized by non-blanchable erythema on intact skin. A gel composition suitable for treatment of skin containing an effective amount of copper-zinc malonate active ingredient is routinely applied to the stage I pressure ulcer twice daily.\nA diabetic is suffering from a stage II pressure ulcer characterized by partial skin loss involving the epidermis, dermis, or both. The lesion is superficial and presents clinically as a shallow center. A liquid composition suitable for treatment of skin containing an effective amount of copper-zinc malonate active ingredient is applied to the shallow center four times a day for 2 months.\nA diabetic is suffering from a stage III pressure ulcer characterized by full thickness skin loss involving damage or necrosis of subcutaneous tissue that extends down to, but not through, underlying fascia. The sore presents clinically as a deep crater. A liquid composition suitable for treatment of skin containing an effective amount of one or more copper-zinc malonate active ingredients is applied to the crater four times a day for 1 month.\nA diabetic is suffering from a stage IV pressure ulcer characterized by full thickness skin loss with extensive destruction, and tissue necrosis. A liquid composition suitable for treatment of skin containing an effective amount of copper-zinc malonate active ingredient is applied to the dying tissue four times a day for 1 month."}, "[2]": {"system": "bee sting characterized by pain and swelling", "test": "topical treatment of a bee sting", "conditions": "child; liquid composition containing 0.05% active ingredient, four times a day for 2 days", "from_the_text": "A child is suffering from a bee sting characterized by pain and swelling. A liquid composition suitable for treatment of skin containing 0.05% copper-zinc malonate active ingredient is applied to the sting four times a day for 2 days."}, "[3]": {"system": "third degree burns on their left wrist and stomach", "test": "topical treatment of third degree burns", "conditions": "person; liquid composition applied four times a day for 1 month", "from_the_text": "A person truck accident victim is suffering from third degree burns on their left wrist and stomach. A liquid composition suitable for treatment of skin containing an effective amount of copper-zinc malonate active ingredient is applied to the third degree burn four times a day for 1 month."}, "[4]": {"conditions": "liquid composition applied four times a day for 1 month"}}}
{"substance": "copper-zinc malonate", "values": [{"measurement": "healing time", "setting": "open soars on their feet", "result": "reduced"}, {"measurement": "healing and time necessary for the wound to close", "setting": "[1]", "result": "promotes healing and decreases the time necessary for the wound to close"}, {"measurement": "stage I pressure ulcer", "setting": "pressure ulcer; gel composition applied twice daily", "result": "reduced or eliminated"}, {"measurement": "stage III pressure ulcer", "setting": "pressure ulcer; [4]", "result": "reduced or eliminated"}, {"measurement": "stage IV pressure ulcer", "setting": "pressure ulcer; [4]", "result": "reduced or eliminated"}, {"measurement": "stage II pressure ulcer", "setting": "pressure ulcer; liquid composition applied four times a day for 2 months", "result": "reduced or eliminated"}, {"measurement": "bee sting", "setting": "[2]", "result": "reduced or eliminated"}, {"measurement": "burnt wrist and stomach, healing time", "setting": "[3]", "result": "improve, and healing time is reduced"}]}
